Test: xn = mol fraction of the nth substance listed
Details: 101 kPa, Liquid, Vibrating tube method

CC1COC(=O)O1 (configuration not stated) [4-methyl-1,3-dioxolan-2-one] + CCc1ccccc1
Details | mass density [kg/m3]
293.15 K, x2 = 0 | 1200.3
293.15 K, x2 = 0.0592 | 1173.5
293.15 K, x2 = 0.1139 | 1149.9
293.15 K, x2 = 0.1749 | 1124.6
293.15 K, x2 = 0.2471 | 1096.1
293.15 K, x2 = 0.3274 | 1066.1
293.15 K, x2 = 0.3856 | 1045.5
293.15 K, x2 = 0.4527 | 1022.7
293.15 K, x2 = 0.5049 | 1005.6
293.15 K, x2 = 0.5672 | 986.1
293.15 K, x2 = 0.6368 | 965.1
293.15 K, x2 = 0.6978 | 947.4
293.15 K, x2 = 0.7529 | 932
293.15 K, x2 = 0.8149 | 915.2
293.15 K, x2 = 0.8742 | 899.6
293.15 K, x2 = 0.9368 | 883.5
303.15 K, x2 = 0 | 1180.6
303.15 K, x2 = 0.0489 | 1159.1
303.15 K, x2 = 0.1278 | 1126.2
303.15 K, x2 = 0.1974 | 1098.6
303.15 K, x2 = 0.2484 | 1079.4
303.15 K, x2 = 0.3149 | 1055.2
303.15 K, x2 = 0.3759 | 1034.1
303.15 K, x2 = 0.4349 | 1014.5
303.15 K, x2 = 0.4876 | 997.7
303.15 K, x2 = 0.5498 | 978.5
303.15 K, x2 = 0.5922 | 965.9
303.15 K, x2 = 0.659 | 946.7
303.15 K, x2 = 0.7249 | 928.4
303.15 K, x2 = 0.7941 | 910
303.15 K, x2 = 0.8578 | 893.5
303.15 K, x2 = 0.9247 | 876.8
313.15 K, x2 = 0 | 1161.3
313.15 K, x2 = 0.0662 | 1133.7
313.15 K, x2 = 0.1258 | 1110
313.15 K, x2 = 0.1835 | 1088
313.15 K, x2 = 0.2458 | 1065.3
313.15 K, x2 = 0.3342 | 1034.7
313.15 K, x2 = 0.3958 | 1014.5
313.15 K, x2 = 0.4592 | 994.6
313.15 K, x2 = 0.5135 | 978.2
313.15 K, x2 = 0.5629 | 963.7
313.15 K, x2 = 0.6248 | 946.2
313.15 K, x2 = 0.6724 | 933.2
313.15 K, x2 = 0.7383 | 915.7
313.15 K, x2 = 0.7873 | 903.2
313.15 K, x2 = 0.8534 | 886.7
313.15 K, x2 = 0.9378 | 866.4
323.15 K, x2 = 0 | 1142.4
323.15 K, x2 = 0.0635 | 1117.4
323.15 K, x2 = 0.1139 | 1098.3
323.15 K, x2 = 0.1729 | 1076.8
323.15 K, x2 = 0.2384 | 1054
323.15 K, x2 = 0.3248 | 1025.4
323.15 K, x2 = 0.3859 | 1006.2
323.15 K, x2 = 0.4523 | 986.2
323.15 K, x2 = 0.5048 | 971
323.15 K, x2 = 0.5733 | 951.9
323.15 K, x2 = 0.6387 | 934.4
323.15 K, x2 = 0.7038 | 917.6
323.15 K, x2 = 0.7587 | 903.8
323.15 K, x2 = 0.8137 | 890.5
323.15 K, x2 = 0.8698 | 877.2
323.15 K, x2 = 0.9247 | 864.5
333.15 K, x2 = 0 | 1124
333.15 K, x2 = 0.0587 | 1102.4
333.15 K, x2 = 0.1328 | 1076.2
333.15 K, x2 = 0.1849 | 1058.6
333.15 K, x2 = 0.2489 | 1037.9
333.15 K, x2 = 0.3186 | 1016.2
333.15 K, x2 = 0.3767 | 998.9
333.15 K, x2 = 0.435 | 982.2
333.15 K, x2 = 0.4957 | 965.5
333.15 K, x2 = 0.5549 | 949.7
333.15 K, x2 = 0.6247 | 931.8
333.15 K, x2 = 0.6978 | 913.8
333.15 K, x2 = 0.7629 | 898.4
333.15 K, x2 = 0.8247 | 884.2
333.15 K, x2 = 0.8624 | 875.7
333.15 K, x2 = 0.9358 | 859.5
343.15 K, x2 = 0 | 1106
343.15 K, x2 = 0.0524 | 1088.2
343.15 K, x2 = 0.1125 | 1068.5
343.15 K, x2 = 0.1828 | 1046.3
343.15 K, x2 = 0.2398 | 1029.1
343.15 K, x2 = 0.3049 | 1010.2
343.15 K, x2 = 0.3673 | 992.8
343.15 K, x2 = 0.4348 | 974.7
343.15 K, x2 = 0.4817 | 962.6
343.15 K, x2 = 0.5428 | 947.3
343.15 K, x2 = 0.6048 | 932.3
343.15 K, x2 = 0.6721 | 916.5
343.15 K, x2 = 0.7498 | 899
343.15 K, x2 = 0.8247 | 882.7
343.15 K, x2 = 0.8827 | 870.5
343.15 K, x2 = 0.9478 | 857
353.15 K, x2 = 0 | 1088.4
353.15 K, x2 = 0.0629 | 1069.2
353.15 K, x2 = 0.1272 | 1050.2
353.15 K, x2 = 0.1947 | 1031
353.15 K, x2 = 0.2598 | 1013.3
353.15 K, x2 = 0.3138 | 999
353.15 K, x2 = 0.3945 | 978.6
353.15 K, x2 = 0.4629 | 962
353.15 K, x2 = 0.5148 | 949.8
353.15 K, x2 = 0.5749 | 936.1
353.15 K, x2 = 0.6345 | 923
353.15 K, x2 = 0.7039 | 908.2
353.15 K, x2 = 0.7635 | 895.8
353.15 K, x2 = 0.8137 | 885.7
353.15 K, x2 = 0.8642 | 875.7
353.15 K, x2 = 0.9248 | 863.9

— the NIST ThermoML archive (doi:10.1016/j.jct.2005.03.019)
